From patent publication US20250145715A1, “B7-H3 TARGETING FUSION PROTEINS AND METHODS OF USE THEREOF” (GT Biopharma, Inc., priority 2021, published 2025)

How the values were obtained:
prostate cancer cells = experiment: NK cell function against prostate cancer cells (flow cytometry); assay type: cell-based, human
Protocol: FIG. 13A is a graph showing percent of NK cells expressing IFNγ against prostate cancer cell targets. FIG. 13B is a graph illustrating the proportion of NK cells undergoing 3 or more rounds of division.
ADCC was measured in a flow cytometry assay by evaluating degranulation via CD107a (lysosomal-associated membrane protein LAMP-1) and intracellular IFNγ production. Upon thawing, normal donor and patient-derived PBMCs or ascites cells were rested overnight (37° C., 5% CO2) in RPMI 1640 media supplemented with 10% fetal calf serum (RPMI-10). The next morning, they were suspended with tumor-target cells or media after washing twice with RPMI-10. Cells were then incubated with TriKEs or controls for 10 min at 37° C. Fluorescein isothiocyate (FITC)-conjugated anti-human CD107a monoclonal antibody (BD Biosciences, San Jose, CA, USA) was then added. Following an hour 37° C. incubation, GolgiStop (1:1500, BD Biosciences) and GolgiPlug (1:1000, BD Biosciences) were added for 3 h. After washing with phosphate buffered saline, the cells were stained with PE/Cy 7-conjugated anti-CD56 mAb, APC/Cy 7-conjugated anti-CD16 mAb, and PE-CF594-conjugated anti-CD3 mAb (BioLegend, San Diego, CA, USA). Cells were incubated for 15 min at 4° C., washed, and fixed with 2% paraformaldehyde. Cells were then permeabilized using an intracellular perm buffer (BioLegend) to evaluate production of IFNγ through detection via aBV650 conjugated anti-human IFNγ antibody (BioLegend). Samples were washed and evaluated in an LSRII flow cytometer (BD Biosciences, San Jose, CA, USA).
As illustrated in FIGS. 12A-12D, 14A-14L and 15A-15D cam1615B7-H3 TriKE targets prostate cancer. The ability of the cam1615B7-H3 TriKE to improve NK cell activity against prostate cancer was tested. All of the prostate cancer cell lines tested expressed B7-H3. For these tests, normal donor PBMCs and PBMCs obtained from metastatic prostate cancer patients were used.

[1] = system: ovarian cancer cell lines; experiment: NK cell activation against ovarian cancer lines vs K562 / Raji; assay type: cell-based
Protocol: ADCC was measured in a flow cytometry assay by evaluating degranulation via CD107a (lysosomal-associated membrane protein LAMP-1) and intracellular IFNγ production. Upon thawing, normal donor and patient-derived PBMCs or ascites cells were rested overnight (37° C., 5% CO2) in RPMI 1640 media supplemented with 10% fetal calf serum (RPMI-10). The next morning, they were suspended with tumor-target cells or media after washing twice with RPMI-10. Cells were then incubated with TriKEs or controls for 10 min at 37° C. Fluorescein isothiocyate (FITC)-conjugated anti-human CD107a monoclonal antibody (BD Biosciences, San Jose, CA, USA) was then added. […] Samples were washed and evaluated in an LSRII flow cytometer (BD Biosciences, San Jose, CA, USA).
The ability of cam1615B7-H3 TriKE to mediate NK cell activity against ovarian cancer cells was evaluated. […] In order to determine if the individual components of the TriKE could induce NK cell activity on their own, the individual cam16 VHH, IL-15, or anti-B7-H3 scFv components were incubated with PBMCs and OVCAR8 cells and activity was determined. […] NK cell activity, from normal donor PBMCs and ascites from the peritoneal cavity of ovarian cancer patients at the time of surgery, was assessed against MA-148 cells, another high-grade serous ovarian adenocarcinoma cell line (FIGS. 29A-29B and 30G-30H). […]

[2] = system: NCI-H322 lung cancer cells; experiment: NK cell CD107a / IFNγ flow cytometry against NCI-H322; assay type: cell-based, human; conditions: normal donor PBMCs, vs controls
Text: FIGS. 24A-24F illustrate that B7-H3 TriKE enhances NK cell function against lung tumor targets. FIG. 24A is a graph showing pooled analysis of proportion of NK cells from healthy donors expressing CD107a+ against A549(N=6) tumor targets. FIG. 24B is a graph showing pooled analysis of proportion of NK cells from healthy donors expressing IFNγ against A549(N=6) tumor targets. FIG. 24C is a graph showing pooled analysis of proportion of NK cells from healthy donors expressing CD107a+ against NCI-H322 (N=5) tumor targets. FIG. 24D is a graph showing pooled analysis of proportion of NK cells from healthy donors expressing IFNγ against NCI-H322 (N=5) tumor targets. FIG. 24E is a graph showing pooled proportion of NK cells from healthy donors (black bars) or lung cancer patients (white bars) expressing CD107a+ against NCI-H460 (N=7). FIG. 24F is a graph showing pooled proportion of NK cells from healthy donors (black bars) or lung cancer patients (white bars) expressing IFNγ against NCI-H460 (N=7). ** p<0.01, *** p<0.001, and **** p<0.0001.
ADCC was measured in a flow cytometry assay by evaluating degranulation via CD107a (lysosomal-associated membrane protein LAMP-1) and intracellular IFNγ production. […] Samples were washed and evaluated in an LSRII flow cytometer (BD Biosciences, San Jose, CA, USA). […]

PC-3 cells = experiment: PC3 standard IncuCyte real-time killing assay; assay type: cell-based, human; conditions: IncuCyte platform
Protocol: FIG. 16 is a graph illustrating a PC3 standard IncuCyte Assay.
Tumor killing was evaluated in real-time using the IncuCyte platform. […] Caspase-3/7 green dye (Sartorious, Ann Arbor, MI, USA) was added to pick up dying cells that have not yet lost NuclightRed fluorescence. Noted treatments were then added at a 30 nM concentration, and the plate was placed in an IncuCyte ZOOM® platform housed inside a cell incubator at 37° C./5% C02. Images from three technical replicates were taken every 15 min for 48 h using a 4× objective lens and then analyzed using IncuCyte™ Basic Software v2018A (Sartorious). Graphed readouts represent percentage live OVCAR8 targets (NuclightRed+Caspase-3/7−), normalized to live targets alone at the starting (0 h) time point.

Substance	NK function (IFNγ) against prostate cancer cell targets vs IL-15 alone (prostate cancer cells; compared to IL-15 alone)	B7-H3 specificity of the signal (prostate cancer cells; with prostate cancer cells)	TriKE-induced signal vs natural cytotoxicity signal (prostate cancer cells; with prostate cancer cells)	IFNγ production against ovarian cancer vs K562 natural cytotoxicity signal ([1]; K562 in the absence of TriKE)	fold NK cell activation (PBMC+Tumor+TriKE divided by PBMC+TriKE alone) ([1]; all ovarian cancer cell lines vs Raji)	NK cell activation against NCI-H322 [2]	real-time tumor killing of PC-3 cells (PC-3 cells)
cam1615B7-H3: second-generation TriKE: humanized camelid anti-CD16 VHH, human wild-type IL-15, anti-B7-H3 mAb 376.96 scFv; SEQ ID NO:1	more potent at inducing NK function than IL-15 alone	specific to B7-H3	stronger than that induced by a strong natural cytotoxicity signal	stronger IFNγ production	higher than activation by the B7-H3-negative Raji line	significantly and robustly improved NK cell activation	–
B7-H3 TriKE: camelid nanobodies targeting CD16 and B7-H3 joined by IL-15 and two linkers; sequence table equates the name with cam1615B7-H3	–	–	–	–	–	–	enhanced efficacy
